From ChEMBL document CHEMBL1201861, “Genomics of Drug Sensitity in Cancer screening data, Wellcome Trust Sanger Institute”

How the values were obtained:
Assay in all cases: cells
Details in all cases: Homo sapiens
[1] = tested on: COLO-824; format: functional, cell-based
Description: SANGER: Inhibition of human COLO-824 cell growth in a cell viability assay.

[2] = tested on: COLO-829; format: functional, cell-based
Description: SANGER: Inhibition of human COLO-829 cell growth in a cell viability assay.

[3] = tested on: CTV-1; format: functional, cell-based;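 note: growth inhibition of the cell line, read out with a cell viability assay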
Description: SANGER: Inhibition of human CTV-1 cell growth in a cell viability assay.

[4] = tested on: Calu-6; format: functional, cell-based;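 note: growth of human Calu-6 cells, read out by a cell viability assay, IC50 marking inhibition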
Description: SANGER: Inhibition of human Calu-6 cell growth in a cell viability assay.

[5] = tested on: DEL; format: functional, cell-based;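 note: growth inhibition of the human DEL cell line, read out with a cell viability assay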
Description: SANGER: Inhibition of human DEL cell growth in a cell viability assay.

[6] = tested on: DMS-114; format: functional, cell-based
[7] = tested on: DMS-79; format: functional, cell-based;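 note: growth inhibition measured with a cell viability assay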
Description: SANGER: Inhibition of human DMS-79 cell growth in a cell viability assay.

[8] = tested on: DSH1; format: functional, cell-based;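 note: growth inhibition of human DSH1 cells, measured with a cell viability readout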
Description: SANGER: Inhibition of human DSH1 cell growth in a cell viability assay.

[9] = tested on: EC-GI-10; format: functional, cell-based
Description: SANGER: Inhibition of human EC-GI-10 cell growth in a cell viability assay.

[10] = tested on: ETK-1; format: functional, cell-based;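 note: growth inhibition of human ETK-1 cells, read out with a cell viability assay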
Description: SANGER: Inhibition of human ETK-1 cell growth in a cell viability assay.

[11] = tested on: EW-24; format: functional, cell-based;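 note: human EW-24 cancer cell line, growth inhibition read out via a cell viability assay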
Description: SANGER: Inhibition of human EW-24 cell growth in a cell viability assay.

[12] = tested on: EOL1; format: functional, cell-based;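 note: growth inhibition of EoL-1 cells, read out by a cell viability assay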
Description: SANGER: Inhibition of human EoL-1-cell cell growth in a cell viability assay.

[13] = tested on: GAK; format: functional, cell-based;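 note: cell growth inhibition read out by a cell viability assay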
Description: SANGER: Inhibition of human GAK cell growth in a cell viability assay.

[14] = tested on: HAL-01; format: functional, cell-based;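 note: growth inhibition of human HAL-01 cells, read out with a cell viability assay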
Description: SANGER: Inhibition of human HAL-01 cell growth in a cell viability assay.

[15] = tested on: HCC1187; format: functional, cell-based;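 note: growth inhibition of HCC1187 cells, read out with a cell viability assay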
Description: SANGER: Inhibition of human HCC1187 cell growth in a cell viability assay.

[16] = tested on: HD-MY-Z; format: functional, cell-based;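 note: growth inhibition of HD-MY-Z cells, read out with a cell viability assay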
Description: SANGER: Inhibition of human HD-MY-Z cell growth in a cell viability assay.

[17] = tested on: HT-144; format: functional, cell-based
Description: SANGER: Inhibition of human HT-144 cell growth in a cell viability assay.

[18] = tested on: IST-SL1; format: functional, cell-based;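 note: growth inhibition of human IST-SL1 cells, read out with a cell viability assay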
Description: SANGER: Inhibition of human IST-SL1 cell growth in a cell viability assay.

[19] = tested on: JVM-2; format: functional, cell-based;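 note: growth inhibition of JVM-2 cells determined by a cell viability assay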
Description: SANGER: Inhibition of human JVM-2 cell growth in a cell viability assay.

[20] = tested on: KALS-1; format: functional, cell-based;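 note: growth inhibition of KALS-1 cells, determined with a cell viability assay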
Description: SANGER: Inhibition of human KALS-1 cell growth in a cell viability assay.

[21] = tested on: KU812 cell line; format: functional, cell-based;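 note: growth inhibition of KU812 cells, read out with a cell viability assay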
Description: SANGER: Inhibition of human KU812 cell growth in a cell viability assay.

[22] = tested on: L-428; format: functional, cell-based
Description: SANGER: Inhibition of human L-428 cell growth in a cell viability assay.

[23] = tested on: LAMA-84; format: functional, cell-based;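 note: growth inhibition of LAMA-84 cells, read out with a cell viability assay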
Description: SANGER: Inhibition of human LAMA-84 cell growth in a cell viability assay.

[24] = tested on: LB2518-MEL; format: functional, cell-based;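 note: growth inhibition of human LB2518-MEL cells, measured with a cell viability assay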
Description: SANGER: Inhibition of human LB2518-MEL cell growth in a cell viability assay.

[25] = tested on: LC-2-ad; format: functional, cell-based;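 note: growth inhibition of human LC-2-ad cells, read out with a cell viability assay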
Description: SANGER: Inhibition of human LC-2-ad cell growth in a cell viability assay.

[26] = tested on: LU-139; format: functional, cell-based
Description: SANGER: Inhibition of human LU-139 cell growth in a cell viability assay.

[27] = tested on: MC116; format: functional, cell-based;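 note: growth inhibition of MC116 cells, read out with a cell viability assay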
Description: SANGER: Inhibition of human MC116 cell growth in a cell viability assay.

[28] = tested on: MFM-223; format: functional, cell-based
Description: SANGER: Inhibition of human MFM-223 cell growth in a cell viability assay.

[29] = tested on: MPP-89; format: functional, cell-based;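 note: growth inhibition of human MPP-89 cells, read out with a cell viability assay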
Description: SANGER: Inhibition of human MPP-89 cell growth in a cell viability assay.

[30] = tested on: MZ2-MEL; format: functional, cell-based;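 note: growth inhibition of MZ2-MEL cells read out with a cell viability assay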
Description: SANGER: Inhibition of human MZ2-MEL cell growth in a cell viability assay.

[31] = tested on: NB13; format: functional, cell-based;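 note: cell viability readout measuring growth inhibition of human NB13 cells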
Description: SANGER: Inhibition of human NB13 cell growth in a cell viability assay.

[32] = tested on: NCI-H1092; format: functional, cell-based;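 note: cell growth inhibition measured with a cell viability assay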
Description: SANGER: Inhibition of human NCI-H1092 cell growth in a cell viability assay.

[33] = tested on: NCI-H1304; format: functional, cell-based;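 note: growth inhibition of the cancer cell line, measured in a cell viability assay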
Description: SANGER: Inhibition of human NCI-H1304 cell growth in a cell viability assay.

[34] = tested on: NCI-H1395; format: functional, cell-based;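 note: cell viability assay read-out quantifying reduced proliferation of human NCI-H1395 cells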
Description: SANGER: Inhibition of human NCI-H1395 cell growth in a cell viability assay.

[35] = tested on: NCI-H1770; format: functional, cell-based;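 note: growth inhibition of NCI-H1770 cells determined with a viability readout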
Description: SANGER: Inhibition of human NCI-H1770 cell growth in a cell viability assay.

[36] = tested on: NCI-H2126; format: functional, cell-based;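 note: growth inhibition of the cancer cell line, determined with a cell viability readout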
Description: SANGER: Inhibition of human NCI-H2126 cell growth in a cell viability assay.

[37] = tested on: NCI-H226; format: functional, cell-based;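 note: cell viability read-out used to gauge growth inhibition of the cells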
Description: SANGER: Inhibition of human NCI-H226 cell growth in a cell viability assay.

[38] = tested on: NCI-H23; format: functional, cell-based;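 note: cell viability assay measuring growth inhibition of NCI-H23 cells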
Description: SANGER: Inhibition of human NCI-H23 cell growth in a cell viability assay.

[39] = tested on: NCI-H510A; format: functional, cell-based;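 note: growth inhibition of NCI-H510A cells, read out with a cell viability assay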
Description: SANGER: Inhibition of human NCI-H510A cell growth in a cell viability assay.

[40] = tested on: NCI-H720; format: functional, cell-based;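 note: growth inhibition of human NCI-H720 cells determined by a cell viability assay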
Description: SANGER: Inhibition of human NCI-H720 cell growth in a cell viability assay.

[41] = tested on: NCI-H82; format: functional, cell-based;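 note: growth inhibition of NCI-H82 cells, measured with a cell viability readout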
Description: SANGER: Inhibition of human NCI-H82 cell growth in a cell viability assay.

[42] = tested on: NH-12; format: functional, cell-based;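 note: growth inhibition of NH-12 cells, read out with a cell viability assay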
Description: SANGER: Inhibition of human NH-12 cell growth in a cell viability assay.

[43] = tested on: OCI-AML2; format: functional, cell-based;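 note: growth inhibition of OCI-AML2 cells, read out with a cell viability assay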
Description: SANGER: Inhibition of human OCI-AML2 cell growth in a cell viability assay.

[44] = tested on: OCUB-M; format: functional, cell-based;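 note: growth inhibition of the cancer cell line, read out through a cell viability assay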
Description: SANGER: Inhibition of human OCUB-M cell growth in a cell viability assay.

[45] = tested on: OS-RC-2; format: functional, cell-based;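 note: growth inhibition of human OS-RC-2 cells, measured by a cell viability assay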
Description: SANGER: Inhibition of human OS-RC-2 cell growth in a cell viability assay.

[46] = tested on: OVCAR-4; format: functional, cell-based;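 note: growth inhibition of human OVCAR-4 cells, measured with a cell viability assay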
Description: SANGER: Inhibition of human OVCAR-4 cell growth in a cell viability assay.

[47] = tested on: RCC10RGB; format: functional, cell-based;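 note: growth inhibition of human RCC10RGB cells, read out by a cell viability assay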
Description: SANGER: Inhibition of human RCC10RGB cell growth in a cell viability assay.

[48] = tested on: RH-1; format: functional, cell-based;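 note: growth inhibition of human RH-1 cells, read out with a cell viability assay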
Description: SANGER: Inhibition of human RH-1 cell growth in a cell viability assay.

[49] = tested on: RS4-11; format: functional, cell-based;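 note: growth inhibition of RS4-11 cells, read out by a cell viability assay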
Description: SANGER: Inhibition of human RS4-11 cell growth in a cell viability assay.

[50] = tested on: SCH; format: functional, cell-based;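 note: growth inhibition of human SCH cells, read out in a cell viability assay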
Description: SANGER: Inhibition of human SCH cell growth in a cell viability assay.

[51] = tested on: SHP77; format: functional, cell-based, SHP-77;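 note: growth inhibition of human SHP-77 cells measured by a cell viability assay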
Description: SANGER: Inhibition of human SHP-77 cell growth in a cell viability assay.

[52] = tested on: SK-N-DZ; format: functional, cell-based;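 note: growth inhibition of the cancer cell line, read out through a viability assay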
Description: SANGER: Inhibition of human SK-N-DZ cell growth in a cell viability assay.

[53] = tested on: SK-N-FI; format: functional, cell-based;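 note: cell viability assay measuring growth inhibition of human SK-N-FI cells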
Description: SANGER: Inhibition of human SK-N-FI cell growth in a cell viability assay.

[54] = tested on: SK-UT-1; format: functional, cell-based;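 note: growth inhibition of SK-UT-1 cells, measured by a cell viability assay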
Description: SANGER: Inhibition of human SK-UT-1 cell growth in a cell viability assay.

[55] = tested on: SNB-75; format: functional, cell-based;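 note: cell viability assay measuring growth inhibition of human SNB-75 cells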
Description: SANGER: Inhibition of human SNB75 cell growth in a cell viability assay.

[56] = tested on: SW684; format: functional, cell-based;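 note: growth inhibition of human SW684 cells, measured by a cell viability assay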
Description: SANGER: Inhibition of human SW684 cell growth in a cell viability assay.

[57] = tested on: SW872; format: functional, cell-based;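 note: growth inhibition of SW872 cells, read out by a viability assay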
Description: SANGER: Inhibition of human SW872 cell growth in a cell viability assay.

[58] = tested on: A3-KAW; format: functional, cell-based;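 note: growth inhibition of human A3-KAW cells, read out with a cell viability assay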
Description: SANGER: Inhibition of human A3-KAW cell growth in a cell viability assay.

[59] = tested on: A498; format: functional, cell-based
Description: SANGER: Inhibition of human A498 cell growth in a cell viability assay.

[60] = tested on: ATN-1; format: functional, cell-based
Description: SANGER: Inhibition of human ATN-1 cell growth in a cell viability assay.

[61] = tested on: BB65-RCC; format: functional, cell-based
Description: SANGER: Inhibition of human BB65-RCC cell growth in a cell viability assay.

[62] = tested on: BV-173; format: functional, cell-based
Description: SANGER: Inhibition of human BV-173 cell growth in a cell viability assay.

[63] = tested on: TE-12; format: functional, cell-based
Description: SANGER: Inhibition of human TE-12 cell growth in a cell viability assay.

[64] = tested on: TGBC1TKB; format: functional, cell-based
Description: SANGER: Inhibition of human TGBC1TKB cell growth in a cell viability assay.

[65] = tested on: no-10; format: functional, cell-based
Description: SANGER: Inhibition of human no-10 cell growth in a cell viability assay.

[66] = tested on: CAS-1; format: functional, cell-based
Description: SANGER: Inhibition of human CAS-1 cell growth in a cell viability assay.

Measured: IC50

COc1cc(C)c(Sc2cnc(NC(=O)c3ccc(CNC(C)C(C)(C)C)cc3)s2)cc1C(=O)N1CCN(C(C)=O)CC1 (configuration not stated)
9390 nM: [25]
8970 nM: [21]
7480 nM: [43]
6620 nM: [30]
2240 nM: [10]
6300 nM: [3]
7110 nM: [55]
3340 nM: [17]
9440 nM: [16]
2420 nM: [63]
9510 nM: [60]
5790 nM: [49]
8900 nM: [45]
9620 nM: [46]
> 10200 nM: all other assays above
